Laboratory results from paper PMC11793105, “A kalihinol analog disrupts apicoplast function and vesicular trafficking in P. falciparum malaria” (Science (New York, N.Y.), 2024).

Key:
[1] = system: P. falciparum NF54 gametocytes; assay: Gametocyte development (sexual stage phenotype) assay; type: cell-based, Plasmodium falciparum; set-up: gametocytes after high dose: dose or concentration left out as unconfirmed
Excerpt: Parasitemia and sexual stage phenotype analyses To understand the phenotypic effects of […]
exposed to stress induced gametocyte induction followed by treatment with N-acetyl glucosamine (NAG; Sigma-Aldrich) supplemented media for 6-7 days to eliminate remaining asexual parasites.
Upon first signs of gametocyte formation observed through giemsa stained smears (5-7 post stress […]
with 3 biological replicates per condition. Culture media were replaced daily with reintroduction of the drug. Gametocyte parasitemia and proportion of the different sexual blood stages were determined by counting Giemsa-stained blood smears by light microscopy at every 24-hour time

[2] = system: P. falciparum W2 (MRA-157, chloroquine resistant); assay: SYBR Green I growth inhibition assay, W2; type: cell-based, Plasmodium falciparum; conditions: early-ring stage, 72 h exposure
Procedure: (§1) Fig. 1. […] (B) SYBR Green–based dose response assays were conducted on early-ring stage parasites (6 hours after invasion). […] 3D7 WT (blue), NF54 (green), drug-resistant strains Dd2 (red), HB3 (black), W2 (gray), and D10-ACP-GFP (purple) lines (Sigmoidal, 4PL, X is concentration, n ≥ 3, nonlinear regression, CI: 95%). (C) Schematic diagram of the development of P. falciparum after two consecutive erythrocytic cycles. The time points at which MED6-189 was introduced are depicted in green. HPS, hours post synchronization. […] The images depict various developmental stages of the parasite’s intraerythrocytic life cycle. Bordered images represent time points when drug was first introduced (n = 3 biological replicates, P < 0.05).
Detailed information on materials and methods is available in the supplementary materials. […] P. knowlesi assays were quantitatively measured by flow cytometry using SYBR Green I and Mitrotracker Deep Red, as previously described ([84], [85]), on a Beckman Coulter CytoFLEX. […]
P. falciparum in vitro SYBR green fluorescence-based assays The anti-malarial activity of individual analogues were evaluated in-vitro against P. falciparum 3D7 (MRA-102, drug […]
green-I based fluorescence assay. Parasite growth rate and stages of development were determined via microscopy through Giemsa-stained smears of the cultures. […]

[3] = biological target: BSEP (bile salt export pump) (Homo sapiens, UniProt O95342); assay: Enhanced Cross Screen Panel (eXP): BSEP inhibition
[4] = system: synchronized P. falciparum 3D7 parasites; assay: Parasitemia and asexual stage phenotype analyses; type: cell-based, Plasmodium falciparum; conditions: IC80, synchronized 3D7, second IEC
Procedure: as §1, with “0.05). […]” for “0.05).”
Data analysis The percentage of parasitized erythrocytes was determined by enumerating the number of Hoechst positive events out of the total erythrocytes after excluding non-single cells by forward and side scatter. The percent survival was calculated by averaging the parasitemia in the triplicates for each condition and then dividing by the parasitemia observed in the wells that did not receive drug treatment. The IC50 was then calculated using GraphPad Prism 9 (GraphPad […]
hrs. […] Parasitemia and proportion of the different asexual blood stages were determined by counting Giemsa-stained blood smears by light microscopy at every 12-hour time point. […]

BSEP (bile salt export pump), sequence (O95342 whole entry, species assumed): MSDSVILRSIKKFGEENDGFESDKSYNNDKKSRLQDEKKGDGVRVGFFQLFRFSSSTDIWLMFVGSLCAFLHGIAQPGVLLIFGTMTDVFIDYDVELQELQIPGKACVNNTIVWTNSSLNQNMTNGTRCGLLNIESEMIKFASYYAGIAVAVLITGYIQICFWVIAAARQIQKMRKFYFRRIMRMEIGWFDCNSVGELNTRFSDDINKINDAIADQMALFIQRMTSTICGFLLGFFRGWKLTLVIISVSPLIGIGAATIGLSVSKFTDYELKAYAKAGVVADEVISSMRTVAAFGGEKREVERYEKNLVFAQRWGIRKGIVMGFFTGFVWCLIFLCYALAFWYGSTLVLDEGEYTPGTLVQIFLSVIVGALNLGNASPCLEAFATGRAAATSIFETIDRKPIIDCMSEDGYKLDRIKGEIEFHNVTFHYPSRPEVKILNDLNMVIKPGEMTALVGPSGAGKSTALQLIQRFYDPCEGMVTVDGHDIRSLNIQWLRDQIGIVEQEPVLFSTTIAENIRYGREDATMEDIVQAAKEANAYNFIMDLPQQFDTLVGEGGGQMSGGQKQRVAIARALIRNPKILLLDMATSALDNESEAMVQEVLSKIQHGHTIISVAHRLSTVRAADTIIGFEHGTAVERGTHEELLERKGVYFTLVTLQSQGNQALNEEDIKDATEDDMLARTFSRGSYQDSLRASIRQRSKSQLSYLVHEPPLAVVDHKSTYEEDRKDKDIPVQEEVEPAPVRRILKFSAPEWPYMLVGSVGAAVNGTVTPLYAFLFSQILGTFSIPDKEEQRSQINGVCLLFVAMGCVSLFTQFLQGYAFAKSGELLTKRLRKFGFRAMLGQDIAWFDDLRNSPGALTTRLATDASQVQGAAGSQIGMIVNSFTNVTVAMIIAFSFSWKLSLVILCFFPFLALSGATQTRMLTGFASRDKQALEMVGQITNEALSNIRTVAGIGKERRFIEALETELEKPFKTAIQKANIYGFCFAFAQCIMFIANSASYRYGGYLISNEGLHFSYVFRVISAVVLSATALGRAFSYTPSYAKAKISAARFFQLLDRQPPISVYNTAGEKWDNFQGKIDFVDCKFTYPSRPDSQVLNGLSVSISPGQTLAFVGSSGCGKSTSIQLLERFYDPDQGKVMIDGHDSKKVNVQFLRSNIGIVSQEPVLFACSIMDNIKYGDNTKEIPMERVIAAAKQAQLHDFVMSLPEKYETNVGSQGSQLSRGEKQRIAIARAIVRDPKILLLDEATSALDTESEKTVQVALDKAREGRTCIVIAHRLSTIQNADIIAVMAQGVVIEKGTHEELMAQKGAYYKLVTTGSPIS

## [C-]#[N+][C@]1(C)CC[C@H]2[C@@H]([C@@H](C(C)C)CC[C@]2(C)[N+]#[C-])[C@H]1O [MED6-189]
[1]; 300nM, day 1 post drug introduction
  (%) Gametocyte MED6-189 (average): 0%
[1]; 300nM, day 2 post drug introduction
  (%) Gametocyte MED6-189 (average): 0.1035%
[1]; 300nM, day 3 post drug introduction
  (%) Gametocyte MED6-189 (average): 0.55%
[1]; 300nM, day 4
  % Change of gametocytemia: 100%
[1]; 300nM, day 4 post drug introduction
  (%) Gametocyte MED6-189 (average): 1.5%
[1]; 300nM, day 5 post drug introduction
  (%) Gametocyte MED6-189 (average): 3.175%
[1]; 300nM, day 6 post drug introduction
  (%) Gametocyte MED6-189 (average): 2.102%
[1]; 300nM, day 7 post drug introduction
  (%) Gametocyte MED6-189 (average): 1.15%
[1]; 300nM, day 8 post drug introduction
  (%) Gametocyte MED6-189 (average): 1.35%
[1]; 300nM, day 9 post drug introduction
  (%) Gametocyte MED6-189 (average): 1.25%
[1]; 300 nM, stage III: days 4 to 6
  inhibition of early gametocyte development vs controls: ~ 62%
[1]; early stages of gametocyte development, after 48 hours of drug treatment
  gametocytes after high dose: no quantifiable gametocytes were observed
[1]; stage V
  effect on mature-stage gametocytes: little to no effect
[2]; Plasmodium falciparum, W2, 72 h
  IC50: 27 ± 5 nM
[2]
  IC50: 26.7 nM
[3]
  IC50: 50000 nM
[4]
  effect on asexual intraerythrocytic development: unable to fully undergo schizogony or reinvasion
